pIC50: −log10 of the molar value.
molecular target: human GPR17 short isoform (Homo sapiens, UniProt Q13304); test: GPR17 cAMP assay (TR-FRET cAMP quantification, antagonist mode); assay type: cell-based; details: CHO-K1 cells stably expressing human GPR17 short isoform; EC80 of agonist MDL29,951; forskolin 15µM; IBMX 0.5mM; 30 minutes at room temperature; read-out: hGPR17 cAMP IC50
Procedure: GPR17 cAMP Assay Protocol:
CHO-K1 cells stably expressing vector containing untagged human GPR17 short isoform (Roche) were cultured at 37°C / 5% CO2 in DMEM (Dulbecco's Modified Eagle Medium):F-12 (1:1) supplemented with 10% foetal bovine serum and 400 µg/ml Geneticin.
Changes in intracellular cyclic adenosine monophosphate (cAMP) levels were quantified using the Nano-TRF Detection Assay kit (Roche Diagnostics, Cat. No. 05214386001). This assay allows for direct cAMP quantification in a homogeneous solution. cAMP is detected based on time-resolved fluorescence energy transfer (TR-FRET) and competitive binding of ruthenylated cAMP and endogenous cAMP to an anti-cAMP monoclonal antibody labeled with AlexaFluor-700. The Ruthenium complex serves as the FRET donor and transfers energy to AlexaFluor-700. The FRET signal is inversely proportional to the cAMP concentration.
CHO-GPR17S cells were detached with Accutase and resuspended in assay buffer consisting of Hank's Balanced Salt Solution (HBSS), 10mM HEPES (4-(2-hydroxyethyl) piperazine-1-ethanesulfonic acid solution) and 0.1% bovine serum albumin (pH 7.4). The cells were seeded in black 384-well plates (Corning) at a density of 10'000 cells / 20µl assay buffer until the addition of compounds.
Test antagonist compounds were serially diluted in dimethyl sulfoxide (DMSO) and spotted in 384-well plates. The compounds were then diluted in HBSS buffer supplemented with an EC80 concentration of MDL29,951 (3-(2-Carboxy-4,6-dichloroindol-3-yl)propionic acid) (GPR17 agonist) plus 3-Isobutyl-1-methylxanthine (IBMX) (0.5mM final concentration) and added to the cells at room temperature. Forskolin (15µM final concentration) was added 5 minutes after the test compounds and the cells were incubated at room temperature for 30 minutes. The assay was stopped by adding cAMP detection mix (containing detergents for cell lysis) for 90 minutes at room temperature.
Cellular cAMP was measured using a Paradigm reader (Molecular Devices). The raw data was used to calculate the FRET signal based on the assay's P-factor as per cAMP kit instructions. The data was normalized to the maximal activity of a reference antagonist and dose response curves were fitted to the percent activity of the test compounds using a sigmoidal dose response model (Genedata Screener).
Results in the hGPR17 cAMP assay are provided for compounds of formula I in Table 1 Table 1: […]

Chain of human GPR17 short isoform (Q13304 29-367): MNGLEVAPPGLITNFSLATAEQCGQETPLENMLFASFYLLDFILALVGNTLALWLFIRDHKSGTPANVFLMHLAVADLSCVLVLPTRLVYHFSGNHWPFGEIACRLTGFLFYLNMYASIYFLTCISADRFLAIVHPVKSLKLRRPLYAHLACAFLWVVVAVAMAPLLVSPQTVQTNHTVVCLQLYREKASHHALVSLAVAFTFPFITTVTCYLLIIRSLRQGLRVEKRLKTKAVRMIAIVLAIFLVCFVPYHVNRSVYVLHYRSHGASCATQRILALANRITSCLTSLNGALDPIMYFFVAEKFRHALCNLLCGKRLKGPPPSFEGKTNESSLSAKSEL

COc1nc(NS(=O)(=O)c2c[nH]c3c(-c4cnccn4)c(C)ccc23)nc(OC)c1OCC(F)F [Example 58, N-[5-(2,2-difluoroethoxy)-4,6-dimethoxy-pyrimidin-2-yl]-6-methyl-7-pyrazin-2-yl-1H-indole-3-sulfonamide] and COc1nc(NS(=O)(=O)c2c[nH]c3c(-c4cnccn4)c(C)ccc23)nc(OC)c1OC(F)F [Example 59, N-[5-(difluoromethoxy)-4,6-dimethoxy-pyrimidin-2-yl]-6-methyl-7-pyrazin-2-yl-1H-indole-3-sulfonamide] are within 0.2 log units of each other in pIC50: 7.29 for the first, 7.17 for the second.

First: COc1nc(NS(=O)(=O)c2c[nH]c3c(-c4ncccn4)c(Cl)c(F)cc23)nc(OC)c1OCC(F)F [Example 60, 6-chloro-N-[5-(2,2-difluoroethoxy)-4,6-dimethoxy-pyrimidin-2-yl]-5-fluoro-7-(2-pyrimidyl)-1H-indole-3-sulfonamide]
Second: COc1nc(NS(=O)(=O)c2c[nH]c3c(-c4ncccn4)cccc23)nc(OC)c1OCC(F)F [Example 72, N-[5-(2,2-difluoroethoxy)-4,6-dimethoxy-pyrimidin-2-yl]-7-(2-pyrimidyl)-1H-indole-3-sulfonamide]
The pIC50 of the first is 1.07 log units higher: 6.92 for the first, 5.85 for the second. The first is the more potent here.

COc1nc(NS(=O)(=O)c2c[nH]c3c(-c4ccn(C)n4)c(Cl)ccc23)nc(OC)c1OCC(F)F [Example 61, 6-chloro-N-[5-(2,2-difluoroethoxy)-4,6-dimethoxy-pyrimidin-2-yl]-7-(1-methylpyrazol-3-yl)-1H-indole-3-sulfonamide] and COc1nc(NS(=O)(=O)c2c[nH]c3c(-c4ccn(C)n4)c(Cl)ccc23)nc(OC)c1OC(F)F [Example 67, 6-chloro-N-[5-(difluoromethoxy)-4,6-dimethoxy-pyrimidin-2-yl]-7-(1-methylpyrazol-3-yl)-1H-indole-3-sulfonamide] are within 0.2 log units of each other in pIC50: 7.64 for the first, 7.62 for the second.

COc1nc(NS(=O)(=O)c2c[nH]c3c(-c4ccnc(C)n4)c(Cl)ccc23)nc(OC)c1OCC(F)F [Example 62, 6-chloro-N-[5-(2,2-difluoroethoxy)-4,6-dimethoxy-pyrimidin-2-yl]-7-(2-methylpyrimidin-4-yl)-1H-indole-3-sulfonamide] and COc1nc(NS(=O)(=O)c2c[nH]c3c(-c4ccncn4)c(Cl)ccc23)nc(OC)c1OCC(F)F [Example 77, 6-chloro-N-[5-(2,2-difluoroethoxy)-4,6-dimethoxy-pyrimidin-2-yl]-7-(4-pyrimidyl)-1H-indole-3-sulfonamide] are within 0.2 log units of each other in pIC50: 7.43 for the first, 7.62 for the second.

COc1nc(NS(=O)(=O)c2c[nH]c3c(-c4ccc(C)nn4)c(Cl)ccc23)nc(OC)c1OCC(F)F [Example 63, 6-chloro-N-[5-(2,2-difluoroethoxy)-4,6-dimethoxy-pyrimidin-2-yl]-7-(6-methylpyridazin-3-yl)-1H-indole-3-sulfonamidemide] and COc1nc(NS(=O)(=O)c2c[nH]c3c(-c4cnc(C)cn4)c(Cl)ccc23)nc(OC)c1OCC(F)F [Example 84, 6-chloro-N-[5-(2,2-difluoroethoxy)-4,6-dimethoxy-pyrimidin-2-yl]-7-(5-methylpyrazin-2-yl)-1H-indole-3-sulfonamide] are within 0.2 log units of each other in pIC50: 7.35 for the first, 7.28 for the second.

COc1nc(NS(=O)(=O)c2c[nH]c3c(-c4nccnc4Cl)c(Cl)ccc23)nc(OC)c1OC(F)F [Example 64, 6-chloro-7-(3-chloropyrazin-2-yl)-N-[5-(difluoromethoxy)-4,6-dimethoxy-pyrimidin-2-yl]-1H-indole-3-sulfonamide] and COc1nc(NS(=O)(=O)c2c[nH]c3c(-c4nccnc4C)c(Cl)ccc23)nc(OC)c1OC(F)F [Example 81, 6-chloro-N-[5-(difluoromethoxy)-4,6-dimethoxy-pyrimidin-2-yl]-7-(3-methylpyrazin-2-yl)-1H-indole-3-sulfonamide] are within 0.2 log units of each other in pIC50: 7.46 for the first, 7.51 for the second.

Compared with COc1nc(NS(=O)(=O)c2c[nH]c3c(-c4nccnc4Cl)c(Cl)ccc23)nc(OC)c1CC(F)F [Example 65, 6-chloro-7-(3-chloropyrazin-2-yl)-N-[5-(2,2-difluoroethyl)-4,6-dimethoxy-pyrimidin-2-yl]-1H-indole-3-sulfonamide], COc1nc(NS(=O)(=O)c2c[nH]c3c(-c4nccnc4C)c(Cl)ccc23)nc(OC)c1CC(F)F [Example 74, 6-chloro-N-[5-(2,2-difluoroethyl)-4,6-dimethoxy-pyrimidin-2-yl]-7-(3-methylpyrazin-2-yl)-1H-indole-3-sulfonamide] is 0.31 log units higher in pIC50: 7.41 for the first, 7.72 for the second.

COc1nc(NS(=O)(=O)c2c[nH]c3c(-c4nccnc4Cl)c(Cl)ccc23)nc(OC)c1OCC(F)F [Example 66, 6-chloro-7-(3-chloropyrazin-2-yl)-N-[5-(2,2-difluoroethoxy)-4,6-dimethoxy-pyrimidin-2-yl]-1H-indole-3-sulfonamide] and COc1nc(NS(=O)(=O)c2c[nH]c3c(-c4nccnc4C)c(Cl)ccc23)nc(OC)c1OCC(F)F [Example 73, 6-chloro-N-[5-(2,2-difluoroethoxy)-4,6-dimethoxy-pyrimidin-2-yl]-7-(3-methylpyrazin-2-yl)-1H-indole-3-sulfonamide] are within 0.2 log units of each other in pIC50: 7.26 for the first, 7.43 for the second.

Going from COc1nc(NS(=O)(=O)c2c[nH]c3c(-c4ccn(C)n4)c(Cl)ccc23)nc(OC)c1OCCF [Example 68, 6-chloro-N-[5-(2-fluoroethoxy)-4,6-dimethoxy-pyrimidin-2-yl]-7-(1-methylpyrazol-3-yl)-1H-indole-3-sulfonamide] to COc1nc(NS(=O)(=O)c2c[nH]c3c(-c4cnc(C)cn4)c(Cl)ccc23)nc(OC)c1OC(F)F [Example 83, 6-chloro-N-[5-(difluoromethoxy)-4,6-dimethoxy-pyrimidin-2-yl]-7-(5-methylpyrazin-2-yl)-1H-indole-3-sulfonamide], the pIC50 falls from 7.74 to 7.01 (0.73 log units). The first is the more potent here.

Compared with COc1nc(NS(=O)(=O)c2c[nH]c3c(-c4cnn(C)c4)c(Br)ccc23)nc(OC)c1OCC(F)F [Example 69, 6-bromo-N-[5-(2,2-difluoroethoxy)-4,6-dimethoxy-pyrimidin-2-yl]-7-(1-methylpyrazol-4-yl)-1H-indole-3-sulfonamide], COc1nc(NS(=O)(=O)c2c[nH]c3c(-c4ccccc4)c(Cl)ccc23)nc(OC)c1OCC(F)F [Example 70, 6-chloro-N-[5-(2,2-difluoroethoxy)-4,6-dimethoxy-pyrimidin-2-yl]-7-phenyl-1H-indole-3-sulfonamide] is 0.26 log units lower in pIC50: 7.25 for the first, 6.99 for the second. The first is the more potent here.

Going from COc1nc(NS(=O)(=O)c2c[nH]c3c(-c4ccccc4)c(Cl)ccc23)nc(OC)c1CC(F)F [Example 71, 6-chloro-N-[5-(2,2-difluoroethyl)-4,6-dimethoxy-pyrimidin-2-yl]-7-phenyl-1H-indole-3-sulfonamide] to COc1nc(NS(=O)(=O)c2c[nH]c3c(-c4ccncn4)c(Cl)ccc23)nc(OC)c1CC(F)F [Example 76, 6-chloro-N-[5-(2,2-difluoroethyl)-4,6-dimethoxy-pyrimidin-2-yl]-7-(4-pyrimidyl)-1H-indole-3-sulfonamide], the pIC50 rises from 7.00 to 7.68 (0.68 log units). The second is the more potent here.

First: COc1nc(NS(=O)(=O)c2c[nH]c3c(-c4ncccn4)c(Cl)ccc23)nc(OC)c1Br [Example 75, N-(5-bromo-4,6-dimethoxy-pyrimidin-2-yl)-6-chloro-7-(2-pyrimidyl)-1H-indole-3-sulfonamide]
Second: COc1nc(NS(=O)(=O)c2c[nH]c3c(-c4ncccn4)c(Cl)ccc23)nc(OC)c1C [Example 85, 6-chloro-N-(4,6-dimethoxy-5-methyl-pyrimidin-2-yl)-7-(2-pyrimidyl)-1H-indole-3-sulfonamide]
The pIC50 of the first is 0.49 log units lower: 6.87 for the first, 7.36 for the second. The second is the more potent here.

Compared with COc1nc(NS(=O)(=O)c2c[nH]c3c(-c4ncccn4)c(Cl)ccc23)nc(OC)c1OCC#N [Example 78, 6-chloro-N-[5-(cyanomethoxy)-4,6-dimethoxy-pyrimidin-2-yl]-7-(2-pyrimidyl)-1H-indole-3-sulfonamide], COc1nc(NS(=O)(=O)c2c[nH]c3c(-c4ncccn4)c(Cl)ccc23)nc(OC)c1CCC#N [Example 79, 6-chloro-N-[5-(2-cyanoethyl)-4,6-dimethoxy-pyrimidin-2-yl]-7-(2-pyrimidyl)-1H-indole-3-sulfonamide] is 0.32 log units higher in pIC50: 6.91 for the first, 7.23 for the second.

Compared with COc1nc(NS(=O)(=O)c2c[nH]c3c(-c4ncccn4)c(Cl)ccc23)ncc1OCCF [Example 80, 6-chloro-N-[5-(2-fluoroethoxy)-4-methoxy-pyrimidin-2-yl]-7-(2-pyrimidyl)-1H-indole-3-sulfonamide], COc1nc(NS(=O)(=O)c2c[nH]c3c(-c4cnc(C)cn4)c(Cl)ccc23)nc(OC)c1CC(F)F [Example 82, 6-chloro-N-[5-(2,2-difluoroethyl)-4,6-dimethoxy-pyrimidin-2-yl]-7-(5-methylpyrazin-2-yl)-1H-indole-3-sulfonamide] is 0.74 log units higher in pIC50: 6.59 for the first, 7.33 for the second.

Reference: patent EP4562003B1, “NOVEL 7-SUBSTITUTED INDOLE SULFONAMIDE DERIVATIVES” (F. Hoffmann-La Roche AG, priority 2022, dated 2024)
